Reference: ChEMBL document CHEMBL5375968, “Peptide TK-HR from the Skin of Chinese Folk Medicine Frog Hoplobatrachus Rugulosus Accelerates Wound Healing via the Activation of the Neurokinin-1 Receptor” (J Med Chem, 2023)
The source made the active and inactive calls. The calls are words filed in the database; no cut-off is given here.

Experiments:
Splenic fibroblast [1] = test: Effect on Smad3 activation in human […] fibroblasts upto 20 uM by Western blot analysis; assay type: functional, cell-based
Mus musculus [2] = species on record: Mus musculus; test: Induction of wound healing in BALB/c mouse model of full-thickness wounds assessed as increase in recruitment of total macrophages in wound skin at 50 ug/ml, TOP bid measured after 2 days by IHC analysis; assay type: functional; settings: dose 50.0 µg/ml, time 2.0 day
Mus musculus [3] = species on record: Mus musculus; test: Induction of wound healing in BALB/c mouse model of full-thickness wounds assessed as increase in TNF-alpha level in wound skin at 50 ug/ml, TOP bid measured after 2 days by ELISA; assay type: functional; settings: dose 50.0 µg/ml, time 2.0 day
HaCaT [4] = test: Induction of cell migration in human HaCaT cells assessed as healing rate at 20 uM measured after 48 hrs by scratch healing assay (reference value: 63.1 %); assay type: functional
Aorta [5] = test: Ex vivo angiogenic activity in Aprepitant-treated C57BL/6 mouse aortic ring assessed as sprouting by measuring vessel outgrowth area at 20 uM measured for 7 days by microscopic analysis (reference value: 117.3 %); assay type: functional; settings: time 7 day
[6] = Induction of TGF-beta1 level in mouse RAW264.7 cells at 10 uM incubated for 24 hrs by ELISA; assay type: functional
[7] = Induction of wound healing in BALB/c mouse model of full-thickness wounds assessed as recruitment of M1-type macrophages in wound skin at 50 ug/ml, TOP bid measured after 4 days by flow cytometry (reference value: 85.3 %); assay type: functional; settings: dose 50 µg/ml, time 4 day
[8] = Toxicity in BALB/c mouse model of full-thickness wounds assessed as animal death at 50 to 200 ug/ml, TOP bid measured upto 8 days; settings: in vivo, topical_or_ocular, 192 h, dose 50-200 µg/ml, time < 8 day
HaCaT [9] = test: Induction of cell migration in Aprepitant-treated human HaCaT cells assessed as healing rate at 20 uM measured after 48 hrs by scratch healing assay (reference value: 63.1 %); assay type: functional
Candida albicans = test: Antimicrobial activity against Candida albicans ATCC 10231 assessed as microbial growth inhibition at 100 uM; assay type: functional, organism-based
[10] = Induction of wound healing in BALB/c mouse model of full-thickness wounds at 50 ug/ml, TOP bid measured after 4 days (reference value: 48.6 %); assay type: functional; settings: dose 50 µg/ml, time 4 day
[11] = Induction of wound healing in BALB/c mouse model of full-thickness wounds at 100 ug/ml, TOP bid measured after 2 days (reference value: 30.4 %); assay type: functional; settings: dose 100 µg/ml, time 2 day
RAW264.7 [12] = test: Induction of cell migration in mouse RAW264.7 cells incubated for 24 hrs by crystal violet staining based microscopy; assay type: functional; settings: dose 5-20 µM
Mus musculus [13] = species on record: Mus musculus; test: Induction of wound healing in BALB/c mouse model of full-thickness wounds assessed as reduction in epidermal cells in wound skin at 50 ug/ml, TOP bid measured after 4 days by IHC analysis; assay type: functional, cell-based; settings: dose 50.0 µg/ml, time 4.0 day
[14] = Induction of wound healing in BALB/c mouse model of full-thickness wounds at 50 ug/ml, TOP bid measured after 6 days (reference value: 71.7 %); assay type: functional; settings: dose 50 µg/ml, time 6 day
[15] = Induction of wound healing in BALB/c mouse model of full-thickness wounds at 50 ug/ml, TOP bid pretreated with Aprepitant for 2 hrs followed by compound administration measured after 6 days (reference value: 69.3 %); assay type: functional; settings: dose 50 µg/ml, time 6 day
RAW264.7 [16] = test: Induction of IL-6 expression in mouse RAW264.7 cells incubated for 24 hrs by ELISA; assay type: functional, cell-based; settings: dose 2.5-20 µM
Mus musculus [17] = species on record: Mus musculus; test: Induction of wound healing in BALB/c mouse model of full-thickness wounds assessed as increase in phosphorylated Smad2 level in wound skin at 50 ug/ml, TOP bid measured after 4 days by Western blot analysis; assay type: functional; settings: dose 50.0 µg/ml, time 4.0 day
[18] = Toxicity in BALB/c mouse model of full-thickness wounds assessed as adverse effect in behaviour at 50 to 200 ug/ml, TOP bid measured upto 8 days; settings: in vivo, topical_or_ocular, 192 h, dose 50-200 µg/ml, time < 8 day
[19] = Induction of wound healing in BALB/c mouse model of full-thickness wounds assessed as alpha-SMA level below wound surface at 50 to 200 ug/ml, TOP bid measured after 8 days by IHC analysis (reference value: 16.4 %); assay type: functional; settings: dose 50-200 µg/ml, time 8 day, at 50 to 200 µg/mL
Aorta [20] = test: Ex vivo angiogenic activity in C57BL/6 mouse aortic ring assessed as increase in sprouting by measuring vessel outgrowth area at 5 uM measured for 7 days by microscopic analysis relative to control; assay type: functional; settings: time 7 day
Neutrophil [21] = test: Induction of chemotaxis in BALB/c mouse neutrophils assessed as increase in cell polarization measured for 15 mins by Zigmond-chamber based microscopy; assay type: functional; settings: dose 5-40 µM
Mus musculus [22] = species on record: Mus musculus; test: Induction of wound healing in BALB/c mouse model of full-thickness wounds assessed as increase in TGF-1beta production in wound skin at 50 to 200 ug/ml, TOP bid measured after 2 to 4 days by ELISA; assay type: functional; settings: dose 50-200 µg/ml, time 2-4 day
[23] = Induction of wound healing in BALB/c mouse model of full-thickness wounds at 50 ug/ml, TOP bid measured after 8 days (reference value: 81.0 %); assay type: functional; settings: dose 50 µg/ml, time 8 day
Cutibacterium acnes = test: Antimicrobial activity against Propionibacterium acnes ATCC 6919 assessed as microbial growth inhibition at 100 uM; assay type: functional, organism-based
RAW264.7 [24] = test: Induction of TNF-alpha expression in mouse RAW264.7 cells incubated for 24 hrs by ELISA; assay type: functional, cell-based; settings: dose 2.5-20 µM
Neutrophil [25] = test: Induction of cell migration in BALB/c mouse neutrophils incubated for 8 hrs by transwell migration assay; assay type: functional, cell-based; settings: dose 5-40 µM
RAW264.7 [26] = test: Upregulation of phosphorylated Smad3 level in Aprepitant-treated mouse RAW264.7 cells at 2.5 to 20 uM incubated for 4 hrs by Western blot analysis; assay type: functional, cell-based; settings: dose 2.5-20 µM
RAW264.7 [27] = test: Induction of phagocytosis in mouse RAW264.7 cells cultured with Escherichia coli ATCC 25922 assessed as number of engulfed bacteria at 20 uM incubated for 24 hrs followed by bacterial exposure measured after 1 hr by plate counting method (reference value: 225); assay type: functional; settings: time 25 hrs
Aorta [28] = test: Ex vivo angiogenic activity in C57BL/6 mouse aortic ring assessed as increase in sprouting by measuring vessel outgrowth area at 10 uM measured for 7 days by microscopic analysis relative to control; assay type: functional; settings: time 7 day
NIH3T3 = test: Effect on TGF-1beta production in mouse 3T3 cells at 5 to 40 uM incubated for 24 hrs by ELISA; assay type: functional, cell-based; settings: dose 5-40 µM
Splenic fibroblast [29] = test: Effect on cell migration in human […] fibroblasts at 20 uM incubated upto 48 hrs by scratch healing assay; assay type: functional, cell-based
Neutrophil [30] = test: Induction of cell migration in Aprepitant-treated BALB/c mouse neutrophils at 5 to 40 uM incubated for 8 hrs by transwell migration assay; assay type: functional, cell-based; settings: dose 5-40 µM

Substance: H-KPNPDRFYGLM-NH2
- Activity (Splenic fibroblast [1]): inactive
- Activity (Mus musculus [2]): Active
- Activity (Mus musculus [3]): Active
- Activity (HaCaT [4]): 92.8%
- Activity (Aorta [5]): 40%
- Activity [6]: 90.7 pg/mL
- Activity [7]: 69.9%
- Activity [8]: Non-Toxic
- Activity (HaCaT [9]): 76.1%
- Activity (Candida albicans): inactive
- Activity [10]: 64.8%
- Activity [11]: 46.6%
- Activity (RAW264.7 [12]): Dose-Dependent Effect
- Activity (Mus musculus [13]): Active
- Activity [14]: 86.6%
- Activity [15]: 69.4%
- Activity (RAW264.7 [16]): Dose-Dependent Effect
- Activity (Mus musculus [17]): Active
- Activity [18]: Non-Toxic
- Activity [19]: 40.4%
- Activity (Aorta [20]): 77.6%
- Activity (Neutrophil [21]): Dose-Dependent Effect
- Activity (Mus musculus [22]): Active
- Activity [23]: 93.1%
- Activity (Cutibacterium acnes): inactive
- Activity (RAW264.7 [24]): Dose-Dependent Effect
- Activity (Neutrophil [25]): Dose-Dependent Effect
- Activity (RAW264.7 [26]): inactive
- Activity (RAW264.7 [27]): 350
- Activity (Aorta [28]): 117.3%
- Activity (NIH3T3): inactive
- Activity (Splenic fibroblast [29]): inactive
- Activity (Neutrophil [30]): inactive
